Results as given in US9527867B2, “Antibacterial biaromatic derivatives” (Actelion Pharmaceuticals Ltd., priority 2013, dated 2016).
≈ marks a conversion by molar mass, not a printed value.

Assays:
Experiment in all cases: Bacterial growth minimal inhibitory concentration (broth microdilution, CLSI M7-A7)
Format in all cases: cell-based
[1] = system: Acinetobacter baumannii T6474; details: multiply-resistant strain (in particular quinolone-resistant); for MIC: Acinetobacter baumannii, T6474, cation-adjusted Mueller-Hinton Broth; for MIC for A. baumannii T6474: cation-adjusted Mueller-Hinton Broth
How it was run: (§1)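 Read-out is the minimal inhibitory concentration in mg/L, obtained by microdilution in cation-adjusted Mueller-Hinton broth following CLSI M7-A7. Quinolone resistance is present in A798 and T6474, which are multiply resistant, but absent in A894 and in methicillin-sensitive ATCC29213.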

[2] = system: Enterococcus faecium A949; details: multiply-resistant strain (in particular quinolone-resistant); for MIC: Enterococcus faecium, A949, cation-adjusted Mueller-Hinton Broth, read-out: MIC for E. faecium A949; for MIC for E. faecium A949: cation-adjusted Mueller-Hinton Broth
How it was run: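 Broth microdilution after CLSI M7-A7 in cation-adjusted Mueller-Hinton medium gave MIC values in mg/L.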

[3] = system: Moraxella catarrhalis A894; details: quinolone-sensitive strain; for MIC: Moraxella catarrhalis, A894, cation-adjusted Mueller-Hinton Broth; for MIC for M. catarrhalis A894: cation-adjusted Mueller-Hinton Broth
How it was run: as §1

[4] = system: Staphylococcus aureus A798; details: multiply-resistant strain (in particular quinolone-resistant); for MIC: Staphylococcus aureus, A798, cation-adjusted Mueller-Hinton Broth, read-out: MIC for S. aureus A798; for MIC for S. aureus A798: cation-adjusted Mueller-Hinton Broth
How it was run: as §1

[5] = system: Staphylococcus aureus ATCC29213; details: methicillin-sensitive and quinolone-sensitive strain; for MIC: Staphylococcus aureus, ATCC29213, cation-adjusted Mueller-Hinton Broth, read-out: MIC for S. aureus ATCC29213; for MIC for S. aureus ATCC29213: cation-adjusted Mueller-Hinton Broth
How it was run: as §1

| Compound | MIC [1] [µg/mL] | MIC [2] [µg/mL] | MIC [3] [µg/mL] | MIC [4] [µg/mL] | MIC [5] [µg/mL] | MIC for A. baumannii T6474 [1] [mg/L] | MIC for E. faecium A949 [2] [mg/L] | MIC for M. catarrhalis A894 [3] | MIC for S. aureus A798 [4] | MIC for S. aureus ATCC29213 [5] |
| --- | --- | --- | --- | --- | --- | --- | --- | --- | --- | --- |
| COc1ccc(C#N)c(-c2cccc(CNCC[C@H]3CN(c4ccc5c(n4)NC(=O)CO5)C(=O)O3)c2)c1 [Example 42, 5-methoxy-3′-({2-[(S)-2-oxo-3-(3-oxo-3,4-dihydro-2H-pyrido[3,2-b][1,4]oxazin-6-yl)-oxazolidin-5-yl]-ethylamino}-methyl)-biphenyl-2-carbonitrile] | 0.5 (≈ 1 µM) | 1 (≈ 2 µM) | ≤ 0.016 | 0.125 (≈ 0.25 µM) | 0.063 (≈ 0.126 µM) |  |  |  |  |  |
| O=C1COc2ccc(N3C[C@H](CCNCc4cccc(-c5cccc(OCC6CCC6)c5)c4)OC3=O)nc2N1 [Example 50, 6-((S)-5-{2-[(3′-cyclobutylmethoxy-biphenyl-3-ylmethyl)-amino]-ethyl}-2-oxo-oxazolidin-3-yl)-4H-pyrido[3,2-b][1,4]oxazin-3-one] | > 8 | 8 (≈ 15.1 µM) | 0.5 (≈ 0.946 µM) | 2 (≈ 3.78 µM) | 4 (≈ 7.57 µM) |  |  |  |  |  |
| COc1cccc(-c2cc(CNCC[C@H]3CN(c4ccc5c(n4)NC(=O)CO5)C(=O)O3)ccc2O)n1 [Example 109] |  |  |  |  |  | 0.125 | 2 | ≦0.016 mg/L | 0.031 mg/L | 0.031 mg/L |
| COc1cnnc(-c2cccc(CNCC[C@@H]3CN(c4ccc5c(n4)NC(=O)CS5)C(=O)O3)c2)c1 [Example 98, 6-((R)-5-{2-[3-(5-methoxy-pyridazin-3-yl)-benzylamino]-ethyl}-2-oxo-oxazolidin-3-yl)-4H-pyrido[3,2-b][1,4]thiazin-3-one] | 0.25 (≈ 0.508 µM) | 4 (≈ 8.12 µM) | 0.031 (≈ 0.0629 µM) | 0.125 (≈ 0.254 µM) | 0.25 (≈ 0.508 µM) |  |  |  |  |  |
| N#Cc1ccc(-c2cccc(CNCC[C@H]3CN(c4ccc5c(n4)NC(=O)CO5)C(=O)O3)c2)cc1 [Example 66, 3′-({2-[(S)-2-oxo-3-(3-oxo-3,4-dihydro-2H-pyrido[3,2-b][1,4]oxazin-6-yl)-oxazolidin-5-yl]-ethylamino}-methyl)-biphenyl-4-carbonitrile] | 2 (≈ 4.26 µM) | 16 (≈ 34.1 µM) | ≤ 0.063 | 2 (≈ 4.26 µM) | 1 (≈ 2.13 µM) |  |  |  |  |  |
| COc1cccc(-c2cncc(CNCC[C@@H]3CN(c4ccc5c(c4)NC(=O)CS5)C(=O)O3)c2)c1 [Example 72, 6-[(R)-5-(2-{[5-(3-methoxy-phenyl)-pyridin-3-ylmethyl]-amino}-ethyl)-2-oxo-oxazolidin-3-yl]-4H-benzo[1,4]thiazin-3-one] | 1 (≈ 2.04 µM) | 4 (≈ 8.15 µM) | 0.063 (≈ 0.128 µM) | 1 (≈ 2.04 µM) | 0.5 (≈ 1.02 µM) |  |  |  |  |  |
| COc1cccc(-c2cccc(CNCC[C@H]3CN(c4ccc5c(n4)NC(=O)CS5)C(=O)O3)c2O)n1 [Example 95, 6-((S)-5-{2-[2-hydroxy-3-(6-methoxy-pyridin-2-yl)-benzylamino]-ethy}-2-oxo-oxazolidin-3-yl)-4H-pyrido[3,2-b][1,4]thiazin-3-one] |  |  |  |  |  | 0.063 | 0.125 | ≦0.016 mg/L | ≦0.016 mg/L | ≦0.016 mg/L |
| N#Cc1cc(-c2cccc(CNCC[C@H]3CN(c4ccc5c(n4)NC(=O)CO5)C(=O)O3)c2)cnn1 [Example 60, 5-[3-({2-[(S)-2-oxo-3-(3-oxo-3,4-dihydro-2H-pyrido[3,2-b][1,4]oxazin-6-yl)-oxazolidin-5-yl]-ethylamino}-methyl)-phenyl]-pyridazine-3-carbonitrile] | 1 (≈ 2.12 µM) | > 8 | 0.063 (≈ 0.134 µM) | 4 (≈ 8.48 µM) | 2 (≈ 4.24 µM) |  |  |  |  |  |
| N#Cc1cnc(O)c(-c2cccc(CNCC[C@@H]3CN(c4ccc5c(c4)NC(=O)CS5)C(=O)O3)c2)c1 [Example 19, 6-hydroxy-5-[3-({2-[(R)-2-oxo-3-(3-oxo-3,4-dihydro-2H-benzo[1,4]thiazin-6-yl)-oxazolidin-5-yl]-ethylamino}-methyl)-phenyl]-nicotinonitrile] | 1 (≈ 1.99 µM) | > 8 | 0.125 (≈ 0.249 µM) | 1 (≈ 1.99 µM) | 1 (≈ 1.99 µM) |  |  |  |  |  |
| COc1cccc(-c2cccc(CNCC[C@H]3CN(c4ccc5c(c4)NC(=O)CO5)C(=O)O3)c2O)n1 [Example 90, 6-((S)-5-{2-[2-hydroxy-3-(6-methoxy-pyridin-2-yl)-benzylamino]-ethyl}-2-oxo-oxazolidin-3-yl)-4H-benzo[1,4]oxazin-3-one] | 0.5 (≈ 1.02 µM) | 2 (≈ 4.08 µM) | ≤ 0.016 | 0.031 (≈ 0.0632 µM) | 0.063 (≈ 0.128 µM) |  |  |  |  |  |
| COc1cccc(-c2cccc(CNCCc3nn(-c4ccc5c(n4)NC(=O)CO5)c(=O)o3)c2)n1 [Example 51, 6-(5-{2-[3-(6-methoxy-pyridin-2-yl)-benzylamino]-ethyl}-2-oxo-[1,3,4]oxadiazol-3-yl)-4H-pyrido[3,2-b][1,4]oxazin-3-one] | 0.5 (≈ 1.05 µM) | 2 (≈ 4.22 µM) | ≤ 0.016 | 1 (≈ 2.11 µM) | 0.5 (≈ 1.05 µM) |  |  |  |  |  |
| COc1ccc(C#N)c(-c2cccc(CNCCc3nn(-c4ccc5c(n4)NC(=O)CO5)c(=O)o3)c2)c1 [Example 52, 5-methoxy-3′-({2-[5-oxo-4-(3-oxo-3,4-dihydro-2H-pyrido[3,2-b][1,4]oxazin-6-yl)-4,5-dihydro-[1,3,4]oxadiazol-2-yl]-ethylamino}-methyl)-biphenyl-2-carbonitrile] | 2 (≈ 4.01 µM) | 4 (≈ 8.02 µM) | 0.031 (≈ 0.0622 µM) | 1 (≈ 2.01 µM) | 0.5 (≈ 1 µM) |  |  |  |  |  |
